Results as given in PubChem BioAssay AID256 (DTP/NCI, 2004).
Toxic doses and inconclusive results are not listed. The calls were made as follows: active = survival T/C of 150% or more; inactive = T/C below 125% in these data.

Tested on: CD2F1 mice, L1210 leukemia ip, survival T/C
Test: NCI In Vivo Anticancer Drug Screen. Data for tumor model L1210 Leukemia (intraperitoneal) in CD2F1 (CDF1) mice
Conditions: higher = longer survival
Outline: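 Implant tumor; dose compound or vehicle; measure endpoint in both groups; report treated divided by control.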

[1] = endpoint: mean survival time, dose: 50.0 mg/kg/injection, schedule: Q04DX002 (ip), vehicle: saline with Tween-80
[2] = endpoint: mean survival time, dose: 100.0 mg/kg/injection, schedule: Q04DX002 (ip), vehicle: saline with Tween-80
[3] = endpoint: mean survival time, dose: 200.0 mg/kg/injection, schedule: Q04DX002 (ip), vehicle: saline with Tween-80
[4] = endpoint: mean survival time, dose: 400.0 mg/kg/injection, schedule: Q04DX002 (ip), vehicle: saline with Tween-80
[5] = endpoint: mean survival time, dose: 100.0 mg/kg/injection, schedule: Q01DX009 (ip), vehicle: saline with Tween-80
[6] = endpoint: mean survival time, dose: 100.0 mg/kg/injection, schedule: Q04DX003 (ip), vehicle: saline with Tween-80
[7] = endpoint: mean survival time, dose: 200.0 mg/kg/injection, schedule: Q01DX009 (ip), vehicle: saline with Tween-80
[8] = endpoint: mean survival time, dose: 200.0 mg/kg/injection, schedule: Q04DX003 (ip), vehicle: saline with Tween-80
[9] = endpoint: mean survival time, dose: 400.0 mg/kg/injection, schedule: Q01DX009 (ip), vehicle: saline with Tween-80
[10] = endpoint: mean survival time, dose: 400.0 mg/kg/injection, schedule: Q04DX003 (ip), vehicle: saline with Tween-80
[11] = endpoint: mean survival time, dose: 100.0 mg/kg/injection, schedule: Q01DX009 (ip), vehicle: Klucel (hydroxypropylcellulose) (HPC)
[12] = endpoint: mean survival time, dose: 200.0 mg/kg/injection, schedule: Q01DX009 (ip), vehicle: Klucel (hydroxypropylcellulose) (HPC)
[13] = endpoint: mean survival time, dose: 12.5 mg/kg/injection, schedule: Q01DX009 (ip), vehicle: saline with Tween-80
[14] = endpoint: mean survival time, dose: 25.0 mg/kg/injection, schedule: Q01DX009 (ip), vehicle: saline with Tween-80
[15] = endpoint: mean survival time, dose: 50.0 mg/kg/injection, schedule: Q01DX009 (ip), vehicle: saline with Tween-80
[16] = endpoint: mean survival time, dose: 100.0 mg/kg/injection, schedule: Q01DX001 (ip), vehicle: saline with Tween-80
[17] = endpoint: mean survival time, dose: 200.0 mg/kg/injection, schedule: Q01DX001 (ip), vehicle: saline with Tween-80
[18] = endpoint: mean survival time, dose: 400.0 mg/kg/injection, schedule: Q01DX001 (ip), vehicle: saline with Tween-80

Measured: T/C

O=C=Nc1ccc(Cl)c(Cl)c1 (tested in a mixture with another compound)
inactive: [1] 97 % of control | [2] 108 % of control | [3] 93 % of control | [4] 89 % of control

CCOC(=O)C1CC(=O)C(C(=O)OCC)CC1=O (stereo not given)
inactive: [5] 100 % of control | [2] 107 % of control | [6] 100 % of control | [7] 97 % of control | [3] 98 % of control | [8] 93 % of control | [9] 97 % of control | [4] 102 % of control | [10] 98 % of control

CCOC(=O)C1=C(C)NC(C)=C(C(=O)OCC)C1c1cccc([N+](=O)[O-])c1
inactive: [11] 105 % of control | [12] 91 % of control

O=c1[nH]cnc2c1ncn2C1OC(CO)C(O)C1O.O=c1[nH]cnc2c1ncn2C1OC(CO)C(O)C1O.[NH2-].[NH2-].[Pt+2] (stereo not given)
inactive: [13] 92 % of control | [14] 96 % of control | [15] 100 % of control | [5] 92 % of control | [7] 103 % of control

CC1CC2CC(=O)CCC2(C)C2CCC3(C)C(O)CCC3C12 (stereo not given)
inactive: endpoint: mean survival time, dose: 18.75 mg/kg/injection, schedule: Q01DX009 (ip), vehicle: Klucel (hydroxypropylcellulose) (HPC) 100 % of control | endpoint: mean survival time, dose: 37.5 mg/kg/injection, schedule: Q01DX009 (ip), vehicle: Klucel (hydroxypropylcellulose) (HPC) 100 % of control | endpoint: mean survival time, dose: 75.0 mg/kg/injection, schedule: Q01DX009 (ip), vehicle: Klucel (hydroxypropylcellulose) (HPC) 100 % of control | endpoint: mean survival time, dose: 150.0 mg/kg/injection, schedule: Q01DX009 (ip), vehicle: Klucel (hydroxypropylcellulose) (HPC) 95 % of control | endpoint: mean survival time, dose: 300.0 mg/kg/injection, schedule: Q01DX009 (ip), vehicle: Klucel (hydroxypropylcellulose) (HPC) 95 % of control

O=C(c1ccccc1)c1ccc2cc(O)ccc2c1
inactive: [16] 102 % of control | [2] 94 % of control | [17] 92 % of control | [3] 90 % of control | [18] 96 % of control | [4] 86 % of control

O=C(O)C(=O)c1ccccc1
inactive: endpoint: mean survival time, dose: 50.0 mg/kg/injection, schedule: Q01DX009 (ip), vehicle: saline 98 % of control | endpoint: mean survival time, dose: 100.0 mg/kg/injection, schedule: Q01DX009 (ip), vehicle: saline 104 % of control | endpoint: mean survival time, dose: 200.0 mg/kg/injection, schedule: Q01DX009 (ip), vehicle: saline 107 % of control

O=C1NC(=O)C(=Cc2cc3c(cc2Br)OCO3)C(=O)N1
inactive: endpoint: mean survival time, dose: 25.0 mg/kg/injection, schedule: Q01DX009 (ip), vehicle: Klucel (hydroxypropylcellulose) (HPC) 91 % of control | endpoint: mean survival time, dose: 50.0 mg/kg/injection, schedule: Q01DX009 (ip), vehicle: Klucel (hydroxypropylcellulose) (HPC) 93 % of control | [11] 89 % of control | [2] 104 % of control | [12] 100 % of control | [3] 112 % of control | [4] 108 % of control

CCOc1ccccc1NCN1C(=O)c2ccccc2C1=O
inactive: [1] 95 % of control | [2] 91 % of control | [3] 95 % of control | [4] 88 % of control

CN(C)S(=O)(=O)c1ccc(Cl)c([N+](=O)[O-])c1
inactive: endpoint: mean survival time, dose: 100.0 mg/kg/injection, schedule: Q04DX002 (ip), vehicle: Klucel (hydroxypropylcellulose) (HPC) 106 % of control | endpoint: mean survival time, dose: 200.0 mg/kg/injection, schedule: Q04DX002 (ip), vehicle: Klucel (hydroxypropylcellulose) (HPC) 106 % of control

C=CCCCCn1c2ccccc2c2c(C)c3cnccc3c(C)c21
inactive: [5] 102 % of control | [7] 102 % of control | [9] 97 % of control

CC(C)=CCNc1ncnc2c1ncn2C1OC(COP(=O)(O)O)C(O)C1O (stereo not given)
inactive: endpoint: mean survival time, dose: 25.0 mg/kg/injection, schedule: Q01DX005 (ip), vehicle: water 103 % of control | endpoint: mean survival time, dose: 50.0 mg/kg/injection, schedule: Q01DX005 (ip), vehicle: water 104 % of control | endpoint: mean survival time, dose: 100.0 mg/kg/injection, schedule: Q01DX005 (ip), vehicle: water 103 % of control | endpoint: mean survival time, dose: 200.0 mg/kg/injection, schedule: Q01DX005 (ip), vehicle: water 114 % of control

CCOC/C=C/C1CCCCC1
inactive: [15] 117 % of control | [5] 97 % of control | [7] 97 % of control

CNC(=S)/N=c1/scc(C)n1C
inactive: [2] 91 % of control | [3] 91 % of control | [4] 111 % of control

c1ccc(-c2nc(-c3ccccc3)n3nc4c(c3c2-c2ccccc2)CCCCCC4)cc1
inactive: endpoint: mean survival time, dose: 100.0 mg/kg/injection, schedule: Q01DX001 (ip), vehicle: saline 112 % of control | endpoint: mean survival time, dose: 200.0 mg/kg/injection, schedule: Q01DX001 (ip), vehicle: saline 108 % of control | endpoint: mean survival time, dose: 400.0 mg/kg/injection, schedule: Q01DX001 (ip), vehicle: saline 87 % of control

O=CNc1ccccc1Cl
inactive: [5] 101 % of control | [6] 94 % of control | [7] 98 % of control | [8] 95 % of control | [9] 91 % of control | [10] 91 % of control

O=C1O/C(=C\c2ccccc2)C(O)=C1c1ccccc1
inactive: endpoint: mean survival time, dose: 25.0 mg/kg/injection, schedule: Q01DX001 (ip), vehicle: saline with Tween-80 102 % of control | endpoint: mean survival time, dose: 50.0 mg/kg/injection, schedule: Q01DX001 (ip), vehicle: saline with Tween-80 98 % of control | [16] 102 % of control

CC1(C)CC(Cc2ccccc2)C(=O)c2ccccc21 (stereo not given)
inactive: [6] 94 % of control | [8] 92 % of control | [10] 94 % of control

O=c1[nH]c(=O)c2ccccc2o1
inactive: [13] 101 % of control | [14] 101 % of control | [15] 98 % of control

CCCCCCCNC(=O)Nc1cc([N+](=O)[O-])ccc1C
inactive: [6] 93 % of control | [8] 94 % of control | [10] 98 % of control

COc1cccc(NC(=S)NC(Cc2ccccc2)c2ccccc2)c1 (stereo not given)
inactive: endpoint: mean survival time, dose: 100.0 mg/kg/injection, schedule: Q01DX001 (ip), vehicle: Klucel (hydroxypropylcellulose) (HPC) 101 % of control | endpoint: mean survival time, dose: 200.0 mg/kg/injection, schedule: Q01DX001 (ip), vehicle: Klucel (hydroxypropylcellulose) (HPC) 91 % of control | endpoint: mean survival time, dose: 400.0 mg/kg/injection, schedule: Q01DX001 (ip), vehicle: Klucel (hydroxypropylcellulose) (HPC) 96 % of control

CCOC(=O)Nc1cc2c(c(N)n1)N=C(CN(C)c1ccc(OC)cc1)CN2
inactive: endpoint: mean survival time, dose: 0.78 mg/kg/injection, schedule: Q01DX009 (ip), vehicle: Klucel (hydroxypropylcellulose) (HPC) 118 % of control

CC(C)(C)c1cc(Cc2cc(C(C)(C)C)c(O)c(C(C)(C)C)c2)cc(C(C)(C)C)c1O
inactive: [16] 91 % of control | [17] 91 % of control | [18] 103 % of control

O=[N+]([O-])c1c(O)c(CNCCCO)cc(CNCCCO)c1O
inactive: endpoint: median survival time, dose: 6.25 mg/kg/injection, schedule: Q01DX009 (ip), vehicle: saline 100 % of control | endpoint: median survival time, dose: 12.5 mg/kg/injection, schedule: Q01DX009 (ip), vehicle: saline 97 % of control | endpoint: median survival time, dose: 25.0 mg/kg/injection, schedule: Q01DX009 (ip), vehicle: saline 88 % of control | endpoint: median survival time, dose: 50.0 mg/kg/injection, schedule: Q01DX009 (ip), vehicle: saline 92 % of control

O.O=[Se](=O)(O)O.[NH-]C1CCCCC1[NH-].[Pt+2] (stereo not given)
inactive: endpoint: mean survival time, dose: 2.0 mg/kg/injection, schedule: Q01DX009 (ip), vehicle: dextrose 88 % of control | endpoint: mean survival time, dose: 3.0 mg/kg/injection, schedule: Q01DX009 (ip), vehicle: dextrose 109 % of control | endpoint: mean survival time, dose: 8.0 mg/kg/injection, schedule: Q04DX003 (ip), vehicle: dextrose 87 % of control
